Data published in PMC6259748, “Selection of Peptides Targeting Helix 31 of Bacterial 16S Ribosomal RNA by Screening M13 Phage-Display Libraries” (Molecules, 2011).
Entries after “also recorded” stand apart in the source; their conditions may differ.

How the values were obtained:
wild-type modified h31 [1] = test: surface plasmon resonance (SPR), modified h31; assay type: binding, E. coli; conditions: for ka (association rate constant) / kd (dissociation rate constant): 1:1 Langmuir, 150 mM NaCl, 50 μL/min, 25 °C, CM5 chip; for ka (association rate constant): 10 mM Tris·HCl, 10 mM MgCl2, 1 mM DTT, 0.005% P20, pH 7.5; for kd (dissociation rate constant): pH 7.5, 10 mM MgCl2
Procedure: Modified h31 was labeled with biotin in order to immobilize the RNA onto a surface and determine the kinetics of peptide binding by surface plasmon resonance (SPR). […] In order to enhance the signal-to-noise ratio, a GFP-protein-fused peptide, TYLPWPA-GFP, was generated and used as the analyte.
Biotinylated, modified h31 RNA was immobilized onto a streptavidin-coated CM5 chip and differing concentrations of TYLPWPA-GFP (10–100 µM) were injected as the analyte. A range of salt concentrations, detergent levels, pH conditions, and flow rates were tested, since these factors affect the peptide-RNA complex formation (data not shown). The apparent dissociation constants were determined under the following optimized conditions: 10 mM Tris·HCl, 150 mM NaCl, 10 mM MgCl2, 1 mM dithiothreitol (DTT), 0.005% (v/v) P20 at pH 7.5 as the running buffer at a flow rate of 50 μL/min.
All immobilization and subsequent binding studies were performed using a BIAcore 2000 instrument set at a temperature of 25 °C. Standard dextran surface BIAcore sensorchips (Sensor chip CM5) were purchased from BIAcore (GE Healthcare, Piscataway, NJ). Standard desorb and sanitize routines were performed according to the BIAcore guidelines before docking a new CM5 sensor chip. All buffers were filtered through sterile 0.2 μm nylon membranes (Millipore™) under vacuum. Before derivatizing the flow cells with streptavidin, the CM5 sensor chip was pre-conditioned using three successive 10 μL injections of chip-preparation solution (10 mM NaOH, 500 mM NaCl) at 100 μL/min, followed by a normalization routine using BIAnormalizing solution (40% glycerol). Streptavidin derivatization was performed according to standard procedures.
Prior to immobilization, the solution of biotinylated RNA in HBS-EP buffer (10 mM HEPES, 3 mM EDTA, 150 mM NaCl, 0.005% P20 at pH 7.4) was renatured by heating to 90 °C for 2 min, cooling gradually to room temperature, and placing on ice. Flow cells were functionalized by injecting 30 μL of RNA at a time using the MANUAL INJECT command at a flow rate of 10 μL/min, until the desired immobilization level was reached. One of the flow cells was used to immobilize RNA, while the adjacent cell remained unmodified to serve as a blank-control for matrix effects. Levels of RNA captured were calculated by subtracting […] for each flow cell. After RNA immobilization, both flow cells were blocked with 100 μL of 1 mg/mL biotin at 5 μL/min.
For the SPR experiments, the peptides were cloned into plasmid pBacEmGH (Cunningham Lab, to be described elsewhere) under transcriptional regulation of a PBAD promoter. Upon induction with L-arabinose, the resulting construct produces a fusion protein in which the peptide is fused to the N-terminus of EmGFP containing a C-terminus 6 x His affinity tag (PEP-EmGFP-6 x His).
Peptide samples were prepared by serial dilutions from stock solutions. Dilutions were made in running buffer (10 mM Tris·HCl, 150 mM NaCl, 10 mM MgCl2, 1 mM DTT, 0.005% (v/v) P20 at pH 7.5). All procedures for binding were automated, as optimized methods using repetitive cycles of sample injection and regeneration. Typically, running buffer was injected for ~30 min prior to experiment to establish a stable baseline value. Peptide solutions (200 μL) were injected at a kinetic flow rate of 50 μL/min, using the KINJECT command. All peptide samples were injected from 7 mm plastic vials (BIAcore) that were capped with pierceable plastic-crimp-caps to minimize carry-over and sample evaporation. Samples were injected in order of increasing concentration. The surface was regenerated using 150 μL of 500 mM NaCl. The data were fit to a 1:1 binding Langmuir model using BIAevaluation 3.0 software. […]

unmodified h31 = test: surface plasmon resonance (SPR), unmodified h31; assay type: binding, E. coli; conditions: analyte 1 μM; ~200 fmoles RNA immobilized; injection time 1 min
Procedure: All immobilization and subsequent binding studies were performed using a BIAcore 2000 instrument set at a temperature of 25 °C. Standard dextran surface BIAcore sensorchips (Sensor chip CM5) were purchased from BIAcore (GE Healthcare, Piscataway, NJ). Standard desorb and sanitize routines were performed according to the BIAcore guidelines before docking a new CM5 sensor chip. All buffers were filtered through sterile 0.2 μm nylon membranes (Millipore™) under vacuum. […]
Prior to immobilization, the solution of biotinylated RNA in HBS-EP buffer (10 mM HEPES, 3 mM EDTA, 150 mM NaCl, 0.005% P20 at pH 7.4) was renatured by heating to 90 °C for 2 min, cooling gradually to room temperature, and placing on ice. […] Levels of RNA captured were calculated by subtracting response units after injection from response units before injection for each flow cell. […]
Kinetic constants were determined by integration of the experimental data using the differential rate equation dRU/dt = ka·C·(RUmax-RU)-kd·RU to obtain ka and kd values simultaneously (RU = observed response, RUmax = maximum response upon saturation, C = analyte concentration, ka = association rate constant, kd = dissociation rate constant). […]

[2] = tested on: translation of green fluorescent protein (GFP); test: coupled in vitro transcription-translation inhibition assay (GFP); assay type: biochemical, E. coli
Procedure: A cell-free translation assay was used to test the potential inhibitory effects of the peptides on protein synthesis. Different concentrations of peptides were added to E. coli S30 extracts and the extent of inhibition was monitored by the measurement of green fluorescent protein (GFP) translation.
The inhibitory effects of selected peptides (DIRTQRE, CVRPFAL, FVRPFAL, TLWDLIP and TYLPWPA) on cellular processes were determined by in vitro coupled transcription-translation inhibition assay. The PURExpress™ in vitro protein synthesis kit #E6800S from New England Biolabs (Beverly, MA) was used for this purpose. A DNA template for GFP (pRSETEmGFP plasmid, Invitrogen) was employed at a concentration of 10 µg/mL in a 15 µL of reaction volume. Different concentrations of peptides were added, ranging from 300 µM to 2 mM. The DNA template was added only after mixing of the peptides or streptomycin so that they could bind to their target region first. For the control, streptomycin was added at a final concentration of 300 µM. The reaction was incubated in 384-well, Costar, clear-well, black plates and in situ incubated at 37 °C in a Gemini XPS microplate spectrofluorometer (Molecular Devices, Sunnyvale, CA) and the amount of GFP produced was monitored at different time intervals from 0 min to 2 h by fluorescence (excitation at 487 nm, emission at 509 nm).

[3] = tested on: GFP-S11-labeled 30S subunits; test: ribosome-binding assay on Tentagel beads; design: species or system E. coli
Procedure: The purpose of this experiment was to determine whether the selected peptides have affinity for bacterial ribosomes. The binding affinities of various peptides could also be compared by this method. Small ribosomal subunits, 30S, labeled with GFP on ribosomal protein S11 were added to peptides covalently attached to Tentagel beads (Figure 4A). […] The peptides were chemically synthesized on Tentagel beads with their N-termini exposed. Increasing concentrations of GFP-tagged 30S subunits were added to the Tentagel-bound peptides and unbound 30S subunits were removed by washing. Relative fluorescence intensity of the 30S subunits bound to the peptides on bead was determined by imaging on a fluorescence microscope, with the assumption that the level of fluorescence on the beads was proportional to the affinity of the ribosome for the peptide sequence.
Four peptides isolated from the phage-display experiment, […], DIRTQRE, TLWDLIP, and […], were synthesized on Tentagel (Rapp Polymer, Tübingen, Germany) beads using standard Fmoc synthesis. The beads were stored in DMF until use. The beads were then washed three times with 450 μl of water, and three times with 450 μL of the binding buffer B (binding buffer: 20 mM HEPES, pH 7.3, 10 mM MgCl2, 100 mM KCl), using 0.45 μm MWCO Nanosep (Pall Corporation, Ann Arbor, MI). The beads were then centrifuged at 6,000 rpm for 1–2 min.
(§1) Fluorescently labeled 30S subunits were isolated by sucrose gradient centrifugation in 5 mM Mg^2+ [82]. For control experiments, His(6)-EmGFP-S11 was purified using IMAC resin (Bio-Rad, Hercules, CA) and the fluorescence was assayed using beads carrying peptides with ribosomes, beads carrying peptides with His(6)-EmGFP-S11 (no ribosomes) and beads only with ribosomes (no peptides).
(§2) The fluorescent ribosomes were incubated in binding buffer B (20 mM HEPES, pH 7.3, 10 mM MgCl2, 100 mM KCl) at 37 °C for 30 min. Next, 25 pmoles of ribosome solution was added to each peptide, and the mixture was incubated overnight at 4 °C with agitation. Unbound ribosomes were removed by two 450 μL washes with binding buffer B and centrifugation at 6,000 rpm for 1–2 min. The beads were resuspended in 40 μL of binding buffer B for microscope screening and kept on ice until scanning. The beads (20 μL) were spread on microscope slides for scanning (Olympus 1X71 microscope, TH4 100 Olympus lamp, Olympus UCMAD 3 camera, 20× magnification). An average of two pictures were taken per slide, eliminating beads presenting uneven swelling and cracks.

His(6)-EmGFP-S11 protein = test: bead control with S11-emGFP protein (no ribosomes); assay type: binding, E. coli; conditions: purified His(6)-EmGFP-S11 added to peptide on beads
Procedure: The fluorescence intensity of each set of beads containing the selected peptides was quantified.
as §1, §2

wild-type modified h31 [4] = test: surface plasmon resonance (SPR), modified h31; assay type: binding, E. coli; conditions: SPR kinetic analysis, 1:1 Langmuir; pH 7.5; 150 mM NaCl, 10 mM MgCl2; 50 μL/min; 25 °C; analyte 0–1 μM

## CVRPFAL-GFP
wild-type modified h31 [1]
  ka (association rate constant): (120 ± 1) × 10^2 M^-1s^-1
  kd (dissociation rate constant): (2.6 ± 0.02) × 10^-3 s^-1
Unmodified h31
  binding interaction with unmodified h31: did not reveal any binding interactions; also recorded: No binding interaction was detected

## TLWDLIP [heptapeptide selected against modified h31, with and without counter selection]
[2]; cell-free translation, summary statement
  inhibition of in vitro protein synthesis: inhibit in vitro protein synthesis
[2]; peptides at 1 mM, 37 °C, GFP fluorescence
  order of translation inhibition by peptides (from high to low): CVRPFAL ≈ FVRPFAL > TLWDLIP > TYLPWPA > DIRTQRE
[3]; Tentagel beads, fluorescence microscopy, pH 7.3
  order of binding preference by the 30S subunits (from high to low): TYLPWPA > CVRPFAL ≈ TLWDLIP > DIRTQRE
[3]; peptide on Tentagel beads, 30S subunits overnight at 4 °C, 20 mM HEPES, pH 7.3, 10 mM MgCl2, 100 mM KCl, duplicate
  fluorescence on beads after 30S binding: Fluorescence is observed
His(6)-EmGFP-S11 protein
  fluorescence on beads with S11-emGFP protein: did not show any fluorescence; also recorded: fluorescence was not observed
wild-type modified h31 [1]; in words, comparable to known antibiotics targeting 16S rRNA
  binding affinity to modified h31: high nM

## TLWDLIP-GFP
wild-type modified h31 [1]
  ka (association rate constant): (93 ± 2) × 10^2 M^-1s^-1
  kd (dissociation rate constant): (3.1 ± 0.3) × 10^-3 s^-1
wild-type modified h31 [4]
  KD (kd/ka): 330 ± 7 nM
